Patent US11040937B2, “Amide derivative” (TOHOKU UNIVERSITY, priority 2014, dated 2021)
Read-outs that look alike come from different tables or passages of the source.

Columns and labels:
[1] = test system: A549/OPNluc cells; experiment: WST assay for cell growth / cell viability; type: cell-based, human; details: 48±4 hours, WST-1, read-out: IC50 (concentration for 50% inhibition of cell growth)
Excerpt: (§1) A reporter vector pOPN1-luc obtained by the insertion of a human OPN promoter sequence (−765 to 23) into the multiple cloning site of pGL-3 basic vector (Promega) expresses luciferase when transfected into animal cells. The pOPN1-luc was transfected into a human non-small cell lung cancer-derived cell line A549 together with pPUR (Clontech) that expresses a puromycin resistance gene (puromycin-N-acetyl-transferase gene), and then cells expressing luciferase which could grow a puromycin-supplemented medium were selected. The selected cells were named “A549/OPNluc cells” and used for observation of luciferase expression inhibitory effect under control of OPN promoter, as described below.
(§2) A test compound was added to a culture containing A549/OPNluc cells to observe its influence on the amount of luciferase expressed in the cells. Here, it can be considered that when the test compound has a cell cytotoxity or cell growth inhibitory effect, the total expression level of luciferase is reduced due to a reduction in the number of living cells that depends on the concentration of the test compound, and therefore the luciferase expression inhibitory effect of the test compound under control of OPN promoter cannot be properly evaluated. For this reason, WST assay for quantification of cell proliferation ability or cell viability by colorimetric measurement was firstly performed to determine IC50 (concentration for 50% inhibition of cell growth) of the test compound for cell growth. Then, luciferase activity measurement was performed to determine EC50 (concentration for 50% inhibition of luciferase expression) of the test compound for luciferase expression under control of OPN promoter.
A549/OPNluc cells were suspended in DMEM medium containing 10% fetal calf serum (FCS) and 1% penicillin/streptomycin (P/S) at 3×10^4 cells/mL to obtain a cell suspension, and then the cell suspension was dispensed into each well of a 96-well plate in an amount of 100 μL. In order to perform the assay in triplicate, wells were prepared for a control group, and 3 wells were prepared for each test compound-treated group at each concentration. After the dispensation, the 96-well plate was incubated in a CO2 incubator (at 37° C. and 5% CO2) for 24±4 hours.
The present compound was dissolved in dimethylsulfoxide (DMSO) to obtain a 50 mmol/L solution, and the compound solution was stored at −80° C. The compound solution was diluted with DMSO in 2-fold dilution series (usually, in the range of 0.31 mmol/L to 20 mmol/L) to prepare test compound solutions whose concentration varied by two fold for WST assay.
Each solution of only DMSO (control) and the diluted test compound (sample) was dispensed into each well containing the cell suspension in an amount of 0.5 μL (200-fold dilution). The solution in each well was mixed with a vortex mixer, and then the 96-well plate was incubated in a CO2 incubator (at 37° C. and 5% CO2) for 48±4 hours. Then, Premix WST-1 Reagent (TAKARA BIO INC.) was added in an amount of 10 μL to each well. The solution in each well was mixed with a vortex mixer, and then the 96-well plate was incubated at 37° C. and 5% CO2. After 60 minutes or 120 minutes, the absorbance values (450 nm) were measured with a microplate reader (Bio-Rad; Benchmark or Thermo Scientific; Varioskan Flash).
The absorbance values of the control wells and the sample wells at each concentration were input into an Excel file to determine the percentages of absorbance values of the sample wells at each concentration with to the average absorbance value of the control wells. From the determined values, a fitted curve was determined by the method of least squares to calculate IC50.

[2] = test system: human OPN promoter (pOPN1-luc) in A549/OPNluc cells; experiment: Luciferase assay: luciferase expression under control of OPN promoter; type: cell-based
Excerpt: as §1, §2
The same steps as in the above-mentioned WST assay were performed in which each solution of only DMSO (control) or the diluted test compound (sample) was added in an amount of 0.5 μL to each well containing the cell suspension to achieve 200-fold dilution, and the solution in each well was mixed with a vortex mixer, and the 96-well plate was incubated in a CO2 incubator (at 37° C. and 5% CO2) for 48±4 hours.
Luciferase Assay Substrate (hereinafter referred to as “LAS”) supplied in Luciferase Assay Systems (Promega: Cat #E1500) was dissolved in Luciferase Assay Buffer (LAB) to prepare a luciferase reagent. 5×Cell Culture Lysis Reagent (hereinafter referred to as “CCLR”) was diluted by 5 times with water to prepare 1×CCLR.
After the incubation for 48±4 hours, the medium in each well was completely removed, and 1×CCLR was dispensed into each well in an amount of 50 μL. The 96-well plate was allowed to stand at room temperature for 30 minutes, and then 1×CCLR in each well was used as an assay sample. The luciferase reagent (100 μL) was placed in a tube for chemiluminescence measurement, and the assay sample (20 μL) was added to the tube and mixed with the luciferase reagent to measure chemiluminescence (Relative Luminescence Intensity: RLU) using TB 20/20 (Promega) or GloMax 20/20 (Promega).
The RLU values of the control wells and the sample wells at each concentration were input into an Excel file, and the percentages of RLU values of the sample wells at each concentration to the average RLU value of the control wells were determined. From these values, a fitted curve was determined by the method of least squares to calculate EC50. Also, the percentages of RLU values of the sample wells at each concentration to the average RLU value of the control wells were divided by the percentages of absorbance values of the compounds in WST assay at the same concentrations as those of this assay (to the control), and a fitted curve was determined from the calculated values by the method of least squares to calculate corrected EC50.

[3] = Homo sapiens, A549, A549/OPNluc cells
[4] = Homo sapiens, A549, A549/OPNluc cells, 48±4 hours, read-out: EC50 (concentration for 50% inhibition of luciferase expression)
[5] = Homo sapiens, A549, EC50 corrected for decrease in viable cells (RLU % divided by WST %), read-out: corrected EC50

O=C(CCC(=O)Nc1cccc(Oc2ccc(Cl)cc2)c1)Nc1ccc(O)cc1 [Compound 23, N-(4-Hydroxyphenyl)-4-(3-(4-chlorophenoxy)phenylamino)-4-oxobutanamide]
IC50 ([1]; A549/OPNluc cells): 87.3 µM
IC50 [1, 3]: > 100 µM
EC50 ([2]; A549/OPNluc cells, 48±4 hours, read-out: EC50 (concentration for 50% inhibition of luciferase expression)): 40.6 µM
EC50 ([2]; EC50 corrected for decrease in viable cells (RLU % divided by WST %), read-out: corrected EC50): 50.9 µM
EC50 [2, 4]: 71.5 µM
EC50 [2, 5]: 82.8 µM

O=C(NCCc1c[nH]c2c(Oc3ccc(O)cc3)cccc12)c1ccc(O)cc1 [Compound 2, 4-Hydroxy-N-(2-(7-(4-hydroxyphenoxy)-1H-indol-3-yl)ethyl)benzamide]
IC50 [1, 3]: 51 µM
EC50 [2, 4]: 26.8 µM
EC50 [2, 5]: 60.3 µM

O=C(Nc1cccc(Oc2ccc(Cl)cc2)c1)C1CN(C(=O)c2ccc(O)cc2)C1 [Compound 31, N-(3-(4-chlorophenoxy)phenyl)-1-(4-hydroxyphenylcarbonyl)azetidine-3-carboxamide]
IC50 [1, 3]: 26.9 µM
EC50 [2, 4]: 9.3 µM
EC50 [2, 5]: 11 µM

O=C(Nc1cccc(Oc2ccc(Cl)cc2)c1)C1CCN(C(=O)c2ccc(O)cc2)C1 (centres unmarked) [Compound 32, N-(3-(4-chlorophenoxy)phenyl)-1-(4-hydroxyphenylcarbonyl)pyrrolidine-3-carboxamide]
IC50 [1, 3]: 24.7 µM
EC50 [2, 4]: 8 µM
EC50 [2, 5]: 9.3 µM

COc1ccc(Oc2ccccc2NC(=O)CNC(=O)c2ccc(O)cc2)cc1 [Compound 28, N-(2-(2-(4-Methoxyphenoxy)phenylamino)-2-oxoethyl)-4-hydroxybenzamide]
IC50 [1, 3]: > 100 µM
EC50 [2, 4]: 41.5 µM
EC50 [2, 5]: 53.7 µM

CC(=O)Nc1ccc(C(=O)NCCC(=O)c2cccc(Oc3ccc(Cl)cc3)c2N)cc1 [Compound 20, N-(3-(2-amino-3-(4-chlorophenoxy)phenyl)-3-oxopropyl)-4-acetylaminobenzamide]
IC50 [1, 3]: > 100 µM
EC50 [2, 4]: 16.3 µM
EC50 [2, 5]: 18 µM

COc1ccc(Oc2cccc(NC(=O)CCCNC(=O)c3ccc(O)cc3)c2)cc1 [Compound 27, N-(4-(3-(4-Methoxyphenoxy)phenylamino)-4-oxobuthyl)-4-hydroxybenzamide]
IC50 [1, 3]: 71.9 µM
EC50 [2, 4]: 19.8 µM
EC50 [2, 5]: 26.6 µM

COc1cccc(C(=O)CCNC(=O)c2ccc(O)cc2)c1N [Compound 12, N-(3-(2-Amino-3-methoxyphenyl)-3-oxopropyl)-4-hydroxybenzamide]
IC50 [1, 3]: > 200 µM
EC50 [2, 4]: > 200 µM

COc1ccc(Oc2cccc(C(=O)CCNC(=O)c3ccc(O)cc3)c2N)cc1OC [Compound 16, N-(3-(2-Amino-3-(3,4-dimethoxyphenoxy)phenyl)-3-oxopropyl)-4-hydroxybenzamide]
IC50 [1, 3]: 34.9 µM
EC50 [2, 4]: 9.8 µM
EC50 [2, 5]: 12.5 µM

COc1ccc(Oc2cccc(C(=O)NCCNC(=O)c3ccc(O)cc3)c2)cc1 [Compound 21, N-(2-(3-(4-Methoxyphenoxy)benzoylamino)ethyl)-4-hydroxybenzamide]
IC50 [1, 3]: 95.9 µM
EC50 [2, 4]: 16.1 µM
EC50 [2, 5]: 17 µM
